Literature values, collected in patent US20040191218A1, “Pharmaceutical compositions and methods for treating cancer” (priority 2001, published 2004).

Key:
[1] = carboplatin compared with cisplatin
[2] = system: neoplastic cells including ovarian cancer cells
relapsing ovarian cancer = conditions: 14 patients with relapsing ovarian cancer, IFN-γ 2 mg/m^2 daily intravenously
ovarian cancer = conditions: intraperitoneal IFN-γ, 108 patients with residual disease at second-look laparotomy

Molecule | neurotoxicity and nephrotoxicity [1] | antiproliferative effects on neoplastic cells [2] | Positive responses (relapsing ovarian cancer) [%] | overall response rate (ovarian cancer) [%]
[NH2][Pt]1([NH2])[O]C(=O)C2(CCC2)C(=O)[O]1 [carboplatin, diammine(1,1-cyclobutanedicarboxylato) platinum(II)] | less neurotoxicity and nephrotoxicity than cisplatin |  |  | 
IFN-γ: lymphokine produced by T-lymphocytes; natural or recombinant interferon gamma |  | exerts antiproliferative effects | 29 | 31
